Experimental data as given in patent publication US20080194637A1, “Small organic molecule regulators of cell proliferation” (Curis, Inc., priority 2006, published 2008).
Where a name gives a salt, the structure may show the parent alone. Read-outs that look alike come from different tables or passages of the source.

Assays:
[1] = tested on: sonic hedgehog pathway, TM3 mouse Leydig cells; assay: Hedgehog pathway Gli-luciferase reporter assay in TM3 cells; type: cell-based
Text: (§1) Mouse (TM3: mouse Leydig cells; S12: mouse embryonic mesenchymal cells) and human (Daoy: human medulloblastoma cell; HepM: human embryonic palatal mesenchymal cell) cell lines are used to screen small molecules for their ability to modulate the activity of the sonic hedgehog pathway (Table 1, Table 2, and Table 3). Stable hedgehog pathway reporter cell lines are established by specific antibiotic selection following transfection of a reporter plasmid containing a luciferase gene located directly downstream from the gli promoter. Consequently, any observable changes in cellular luciferase activity may be attributed to changes in sonic hedgehog pathway activity in mouse and human cells, respectively, since gli is the major by-product of this pathway. To calculate activity, we generate an eleven point dose curve for each compound using 1:3 dilutions in 96 well assay plates. Each plate tested also contains low and high control to establish maximal pathway activation so to establish/compare a percentage activation of each tested compound (AMAX) on respective plates. Also we calculate EC50 values, or a concentration where the pathway will be exactly 50% activated, for each tested compound to determine potency. In these cell lines, compounds that register >20% AMAX values are considered active.
(§2) Stable hedgehog pathway reporter cell lines are established following specific antibiotic selection following transfection of a reporter plasmid In short, typically cells are plated in MicroTiter-plates at 10,000-20,000 cells per well, in growth media (containing 10%-20% FBS). After 48-72 hrs (HGL and DGL respectively) the media in the assay plates is switched to low-serum containing media (0.5% FBS). At that time compounds are added (at 1-5 μM) to the assay plates, in the presence or absence of hedgehog protein (octyl-modified version; 1-5 ng/ml). After another 24 hrs of incubation, the media from the assay plates is discarded and replaced with luciferase assay-mix. Subsequently, plates are incubated at RT for ˜15-30 mins and then read in a luminometer. [note: addition of the Hedgehog protein, although not critical, will sensitize the assay allowing the identification of weak actives].

[2] = tested on: sonic hedgehog pathway, HepM human embryonic palatal mesenchymal cells; assay: Human hedgehog reporter assay HEPM-GliLuc (HGL); type: cell-based; conditions: gli-luciferase reporter
Text: as §1, §2

[3] = tested on: sonic hedgehog pathway, Daoy human medulloblastoma cells; assay: Human hedgehog reporter assay Daoy-GliLuc (DGL); type: cell-based; conditions: gli-luciferase reporter, read-out: Daoy Avg. EC50
Text: as §1, §2

[4] = tested on: C57BL/6 male mice; assay: C57BL/6 hair growth after single topical dose; type: in vivo, mouse; conditions: shaved lower back, dosed topically once, visually graded for melanogenesis and hair regrowth
Protocol: A mouse model of male pattern baldness is used to investigate the effectiveness of the present compounds for growing hair. Agonists for the sonic hedgehog pathway that act by binding and activating Smoothened were tested in a formulation of 50:30:20 PG:EtOH:water or 5:95 DMSO:acetone vehicle. C57BL/6 male mice (48-52 days old on arrival) from Charles River Labs were used on the study. The mice were housed and cared for according to established procedures. Food and water were ad libitum. On Day 0, the mice were shaved on their lower back, an area of ˜1.5 inches×˜2 inches with Wahl clippers using a surgical blade. On day −3, the mice were anesthetized with isoflurane, their back was rinsed with a pad of 70% ethanol, a placebo pellet or a DHT pellet (2.5 mg 21 day pellet) were implanted subcutaneously between the shoulder blades with a 10 gauge trochar. DHT pellet transplantation results in maintenance of existing hair follicles in the resting (telogen) phase. The hole was stapled with a sterile autoclip and the mice were returned to their cage after awaking. The mice were dosed topically once and visually graded daily, except weekends, for melanogenesis and hair regrowth of fur in the dosed area (Table 4).

[5] = HepM human embryonic palatal mesenchymal cells, Table 1
[6] = Daoy human medulloblastoma cells, Table 1

Row | Structure (SMILES) | EC50 ([1]; Table 1) [nM] | EC50 [2, 5] [nM] | EC50 [3, 6] [nM] | also measured
1 | CN[C@H]1CC[C@@H](N(Cc2cc(-c3ccnc(C(=O)O)c3)ccc2OC)C(=O)c2sc3c(F)ccc(F)c3c2Cl)CC1 [Compound R6, 4-(3-{[(3-Chloro-4,7-difluoro-benzo[b]thiophene-2-carbonyl)-(4-methylamino-cyclohexyl)-amino]-methyl}-4-methoxy-phenyl)-pyridine-2-carboxylic acid bis(trifluoroacetate)] | 50 to 250 | 50 to 250 | – | –
2 | CNC(=O)c1cc(-c2ccc(OC)c(CN(C(=O)c3sc4c(F)ccc(F)c4c3Cl)[C@H]3CC[C@H](NC)CC3)c2)ccn1 [356 (R21), 4-(3-{([(3-Chloro-4,7-difluoro-benzo[b]thiophene-2-carbonyl)-(4-methylamino-cyclohexyl)-amino]-methyl}-4-methoxy-phenyl)-pyridine-2-carboxylic acid methylamidedihydrochloride] | < 50 | < 50 | < 50 | –
3 | CCOc1ccc(-c2ccc(C#N)cc2)cc1CN(C(=O)c1sc2ccccc2c1Cl)[C@H]1CC[C@H](NC)CC1 | – | – | – | C57BL/6 Hair Growth [4]: yes
4 | CN[C@H]1CC[C@@H](N(Cc2cc(-c3ccc(OC(F)(F)F)cc3)ccc2OC)C(=O)c2sc3ccccc3c2Cl)CC1 [Compound 307, 3-Chloro-benzo[b]thiophene-2-carboxylic acid (4-methoxy-4′-trifluoromethoxy-biphenyl-3-ylmethyl)-(4-methylamino-cyclohexyl)-amide hydrochloride] | < 50 | – | < 50 | –
5 | CN[C@H]1CC[C@H](N(Cc2cc(-c3ccc(C(O)C(F)(F)F)cc3)ccc2F)C(=O)c2sc3ccccc3c2Cl)CC1 (stereo partly shown) [Compound 433, 3-Chloro-benzo[b]thiophene-2-carboxylic acid [4-fluoro-4′-(2,2,2-trifluoro-1-hydroxy-ethyl)-biphenyl-3-ylmethyl]-(4-methylamino-cyclohexyl)-amide hydrochloride] | – | – | – | EC50 ([1]; Table 3): < 50 nM; EC50 ([3]; Daoy human cells, Table 3): < 50 nM
6 | CN[C@H]1CC[C@@H](N(Cc2cc(-c3cccc(C(C)=O)c3)ccc2OC)C(=O)c2sc3c(F)ccc(F)c3c2Cl)CC1 [Compound 364, 3-Chloro-4,7-difluoro-benzo[b]thiophene-2-carboxylic acid (3′-acetyl-4-methoxy-biphenyl-3-ylmethyl)-(4-methylamino-cyclohexyl)-amide hydrochloride] | < 50 | < 50 | – | –
7 | CN[C@H]1CC[C@@H](N(Cc2cc(-c3cccc(C#N)c3)ccc2OC)C(=O)c2sc3ccccc3c2Cl)CC1 [Compound 304, 3-Chloro-benzo[b]thiophene-2-carboxylic acid (3′-cyano-4-methoxy-biphenyl-3-ylmethyl)-(4-methylamino-cyclohexyl)-amide hydrochloride] | < 50 | < 50 | < 50 | –
8 | CN[C@H]1CC[C@@H](N(Cc2cc(-c3cnc(N(C)C)nc3)ccc2OC)C(=O)c2sc3ccccc3c2Cl)CC1 [Compound 321, 3-Chloro-benzo[b]thiophene-2-carboxylic acid [5-(2-dimethylamino-pyrimidin-5-yl)-2-methoxy-benzyl]-(4-methylamino-cyclohexyl)-amide dihydrochloride] | 1000 to 2500 | – | 50 to 250 | –
9 | CCOc1ccc(-c2ccc(C(F)(F)F)cc2)cc1CN(C(=O)c1sc2ccccc2c1Cl)[C@H]1CC[C@@H](NC)CC1 [Compound 309, 3-Chloro-benzo[b]thiophene-2-carboxylic acid (4-ethoxy-4′-trifluoromethyl-biphenyl-3-ylmethyl)-(4-methylamino-cyclohexyl)-amide hydrochloride] | 50 to 250 | – | < 50 | –
10 | CN[C@H]1CC[C@@H](N(Cc2cc(-c3ccc(S(C)(=O)=O)cc3)ccc2OC)C(=O)c2sc3ccccc3c2Cl)CC1 [Compound R7, 3-Chloro-benzo[b]thiophene-2-carboxylic acid (4′-methanesulfonyl-4-methoxy-biphenyl-3-ylmethyl)-(4-methylamino-cyclohexyl)-amide hydrochloride] | < 50 | < 50 | – | –
11 | CCOc1ccc(-c2ccccc2)cc1CN(C(=O)c1sc2ccccc2c1Cl)[C@H]1CC[C@@H](NC)CC1 [Compound 313, 3-Chloro-benzo[b]thiophene-2-carboxylic acid (4-ethoxy-biphenyl-3-ylmethyl)-(4-methylamino-cyclohexyl)-amide hydrochloride] | 50 to 250 | – | < 50 | –
12 | CN[C@H]1CC[C@@H](N(Cc2cc(-c3ccc(C#N)cc3)ccc2OC)C(=O)c2sc3c(F)ccc(F)c3c2Cl)CC1 [Compound 351, 3-Chloro-4,7-difluoro-benzo[b]thiophene-2-carboxylic acid (4′-cyano-4-methoxy-biphenyl-3-ylmethyl)-(4-methylamino-cyclohexyl)-amide hydrochloride] | < 50 | < 50 | – | –
13 | CCOc1ccc(-c2ccc(OC)cc2)cc1CN(C(=O)c1sc2ccccc2c1Cl)[C@H]1CC[C@@H](NC)CC1 [Compound 312, 3-Chloro-benzo[b]thiophene-2-carboxylic acid (4-ethoxy-4′-methoxy-biphenyl-3-ylmethyl)-(4-methylamino-cyclohexyl)-amide hydrochloride] | – | – | 50 to 250 | –
14 | CN[C@H]1CC[C@H](N(Cc2cc(-c3ccc(N)nc3C)ccc2OC)C(=O)c2sc3ccccc3c2Cl)CC1 [Compound 398, 3-Chloro-benzo[b]thiophene-2-carboxylic acid [5-(6-amino-2-methyl-pyridin-3-yl)-2-methoxy-benzyl]-(4-methylamino-cyclohexyl)-amide dihydrochloride] | – | – | – | EC50 ([1]; Table 3): 1000 to 2500 nM; EC50 ([2]; HepM human cells, Table 3): 1000 to 2500 nM; EC50 ([3]; Daoy human cells, Table 3): 250 to 1000 nM
15 | CCOc1ccc(-c2cncnc2)cc1CN(C(=O)c1sc2ccccc2c1Cl)[C@H]1CC[C@@H](NC)CC1 [Compound 326, 3-Chloro-benzo[b]thiophene-2-carboxylic acid (2-ethoxy-5-pyrimidin-5-yl-benzyl)-(4-methylamino-cyclohexyl)-amide dihydrochloride] | 50 to 250 | 50 to 250 | < 50 | –
16 | CN[C@H]1CC[C@@H](N(Cc2cc(-c3cccc(C#N)c3)ccc2OC)C(=O)c2sc3cccc(F)c3c2Cl)CC1 [Compound 365, 3-Chloro-4-fluoro-benzo[b]thiophene-2-carboxylic acid (3′-cyano-4-methoxy-biphenyl-3-ylmethyl)-(4-methylamino-cyclohexyl)-amide hydrochloride] | < 50 | – | < 50 | –
17 | CN[C@H]1CC[C@@H](N(Cc2cc(-c3ccc(C#N)cc3)ccc2OC)C(=O)c2sc3cccc(F)c3c2Cl)CC1 [Compound 366, 3-Chloro-4-fluoro-benzo[b]thiophene-2-carboxylic acid (4′-cyano-4-methoxy-biphenyl-3-ylmethyl)-(4-methylamino-cyclohexyl)-amide hydrochloride] | < 50 | – | < 50 | –
18 | CN[C@H]1CC[C@@H](N(Cc2cc(-c3cccc(C#N)c3)ccc2OC)C(=O)c2sc3c(F)ccc(F)c3c2Cl)CC1 [Compound 337, 3-Chloro-4,7-difluoro-benzo[b]thiophene-2-carboxylic acid (3′-cyano-4-methoxy-biphenyl-3-ylmethyl)-(4-methylamino-cyclohexyl)-amide hydrochloride] | < 50 | < 50 | – | –
19 | CN[C@H]1CC[C@@H](N(Cc2cc(-c3ccc(CCl)cc3)ccc2OC)C(=O)c2sc3ccccc3c2Cl)CC1 [Compound 340, 3-Chloro-benzo[b]thiophene-2-carboxylic acid (4′-chloromethyl-4-methoxy-biphenyl-3-ylmethyl)-(4-methylamino-cyclohexyl)-amide hydrochloride] | < 50 | < 50 | < 50 | –
20 | CN[C@H]1CC[C@@H](N(Cc2cc(-c3ccc(C)nc3)ccc2OC)C(=O)c2sc3ccccc3c2Cl)CC1 [Compound 320, 3-Chloro-benzo[b]thiophene-2-carboxylic acid [2-methoxy-5-(6-methyl-pyridin-3-yl)-benzyl]-(4-methylamino-cyclohexyl)-amide dihydrochloride] | < 50 | < 50 | – | –
